Measurements taken from ChEMBL document CHEMBL5579851, “Synthesis and antifungal evaluation of novel triazole derivatives bearing a pyrazole-methoxyl moiety” (Eur J Med Chem, 2024).
In brackets after ≈: the same amount, converted by molar mass.

Tests used:
Format in all cases: functional
Saccharomyces cerevisiae [1] = assay: Antifungal activity against recombinant Saccharomyces cerevisiae Y2459 overexpressing CaErg11/CaCpr assessed as inhibition of fungal growth incubated for 48 hrs by CLSI based broth microdilution assay
Saccharomyces cerevisiae [2] = assay: Antifungal activity against recombinant Saccharomyces cerevisiae Y2513 overexpressing ScErg11 Y140H mutant assessed as inhibition of fungal growth incubated for 48 hrs by CLSI based broth microdilution assay
Saccharomyces cerevisiae [3] = assay: Antifungal activity against recombinant Saccharomyces cerevisiae Y525 overexpressing CaMdr1 assessed as inhibition of fungal growth incubated for 48 hrs by CLSI based broth microdilution assay
Saccharomyces cerevisiae [4] = assay: Antifungal activity against recombinant Saccharomyces cerevisiae Y2766 overexpressing CauCdr1 assessed as inhibition of fungal growth incubated for 48 hrs by CLSI based broth microdilution assay
Saccharomyces cerevisiae [5] = assay: Antifungal activity against recombinant Saccharomyces cerevisiae Y2716 overexpressing CpErg11 Y132F mutant/ CpCpr assessed as inhibition of fungal growth incubated for 48 hrs by CLSI based broth microdilution assay
Saccharomyces cerevisiae [6] = assay: Antifungal activity against recombinant Saccharomyces cerevisiae Y2767 overexpressing CauErg11 assessed as inhibition of fungal growth incubated for 48 hrs by CLSI based broth microdilution assay
Saccharomyces cerevisiae [7] = assay: Antifungal activity against recombinant Saccharomyces cerevisiae Y2711 overexpressing CnErg11 assessed as inhibition of fungal growth incubated for 48 hrs by CLSI based broth microdilution assay
Saccharomyces cerevisiae [8] = assay: Antifungal activity against recombinant Saccharomyces cerevisiae Y2374 overexpressing CgErg11 assessed as inhibition of fungal growth incubated for 48 hrs by CLSI based broth microdilution assay
Saccharomyces cerevisiae [9] = assay: Antifungal activity against recombinant Saccharomyces cerevisiae Y2301 overexpressing ScErg11 Y140F mutant assessed as inhibition of fungal growth incubated for 48 hrs by CLSI based broth microdilution assay
Saccharomyces cerevisiae [10] = assay: Antifungal activity against recombinant Saccharomyces cerevisiae Y2462 overexpressing ScErg11/ScNcp1 assessed as inhibition of fungal growth incubated for 48 hrs by CLSI based broth microdilution assay
Saccharomyces cerevisiae [11] = assay: Antifungal activity against recombinant Saccharomyces cerevisiae Y2769 overexpressing CauErg11 K143R mutant assessed as inhibition of fungal growth incubated for 48 hrs by CLSI based broth microdilution assay
Saccharomyces cerevisiae [12] = assay: Antifungal activity against recombinant Saccharomyces cerevisiae Y570 overexpressing CaCdr1 assessed as inhibition of fungal growth incubated for 48 hrs by CLSI based broth microdilution assay
Saccharomyces cerevisiae [13] = assay: Antifungal activity against recombinant Saccharomyces cerevisiae Y2765 overexpressing CauMdr1 assessed as inhibition of fungal growth incubated for 48 hrs by CLSI based broth microdilution assay
Saccharomyces cerevisiae [14] = assay: Antifungal activity against recombinant Saccharomyces cerevisiae Y2768 overexpressing CauErg11 T132F mutant assessed as inhibition of fungal growth incubated for 48 hrs by CLSI based broth microdilution assay
Saccharomyces cerevisiae [15] = assay: Antifungal activity against recombinant Saccharomyces cerevisiae Y2300 overexpressing ScErg11 assessed as inhibition of fungal growth incubated for 48 hrs by CLSI based broth microdilution assay
Saccharomyces cerevisiae [16] = assay: Antifungal activity against recombinant Saccharomyces cerevisiae Y2411 overexpressing ScErg11 assessed as inhibition of fungal growth incubated for 48 hrs by CLSI based broth microdilution assay
Saccharomyces cerevisiae [17] = assay: Antifungal activity against recombinant Saccharomyces cerevisiae Y2721 overexpressing CpErg11/CpCpr assessed as inhibition of fungal growth incubated for 48 hrs by CLSI based broth microdilution assay
Candida tropicalis [18] = assay: Antifungal activity against Candida tropicalis 8915 assessed as inhibition of fungal growth incubated for 48 hrs by CLSI based broth microdilution assay
Nakaseomyces glabratus = assay: Antifungal activity against Candida glabrata 537 assessed as inhibition of fungal growth incubated for 48 hrs by CLSI based broth microdilution assay
Candida albicans [19] = assay: Antifungal activity against Candida albicans SC5314 assessed as inhibition of fungal growth incubated for 48 hrs by CLSI based broth microdilution assay
[Candida] auris [20] = Antifungal activity against fluconazole-resistant Candida auris 891 assessed as inhibition of fungal growth incubated for 48 hrs by CLSI based broth microdilution assay; details: Candidozyma auris
Cryptococcus neoformans = assay: Antifungal activity against Cryptococcus neoformans 32609 assessed as inhibition of fungal growth incubated for 72 hrs by CLSI based broth microdilution assay
Candida albicans [21] = assay: Antifungal activity against Candida albicans 10231 assessed as inhibition of fungal growth incubated for 48 hrs by CLSI based broth microdilution assay
Pichia kudriavzevii = assay: Antifungal activity against Candida krusei 4996 assessed as inhibition of fungal growth incubated for 48 hrs by CLSI based broth microdilution assay
Candida albicans [22] = assay: Antifungal activity against fluconazole-resistant Candida albicans 904 assessed as inhibition of fungal growth incubated for 48 hrs by CLSI based broth microdilution assay
Candida albicans [23] = assay: Antifungal activity against fluconazole-resistant Candida albicans 901 assessed as inhibition of fungal growth incubated for 48 hrs by CLSI based broth microdilution assay
[Candida] auris [24] = Antifungal activity against fluconazole-resistant Candida auris 919 assessed as inhibition of fungal growth incubated for 48 hrs by CLSI based broth microdilution assay; details: Candidozyma auris
[Candida] auris [25] = Antifungal activity against fluconazole-resistant Candida auris 918 assessed as inhibition of fungal growth incubated for 48 hrs by CLSI based broth microdilution assay; details: Candidozyma auris
Candida parapsilosis = assay: Antifungal activity against Candida parapsilosis 22019 assessed as inhibition of fungal growth incubated for 48 hrs by CLSI based broth microdilution assay; details: Lodderomyces parapsilosis
Candida tropicalis [26] = assay: Potency index, ratio of fluconazole MIC to test compound MIC for antifungal activity against Candida tropicalis 8915 assessed as inhibition of fungal growth incubated for 48 hrs by CLSI based broth microdilution assay
Candida tropicalis [27] = assay: Potency index, ratio of ravuconazole MIC to test compound MIC for antifungal activity against Candida tropicalis 8915 assessed as inhibition of fungal growth incubated for 48 hrs by CLSI based broth microdilution assay

Structure (SMILES) | MIC (Saccharomyces cerevisiae [1]) | MIC (Saccharomyces cerevisiae [2]) | MIC (Saccharomyces cerevisiae [3]) | MIC (Saccharomyces cerevisiae [4]) | MIC (Saccharomyces cerevisiae [5]) | MIC (Saccharomyces cerevisiae [6]) | MIC (Saccharomyces cerevisiae [7]) | MIC (Saccharomyces cerevisiae [8]) | MIC (Saccharomyces cerevisiae [9]) | MIC (Saccharomyces cerevisiae [10]) | MIC (Saccharomyces cerevisiae [11]) | MIC (Saccharomyces cerevisiae [12]) | MIC (Saccharomyces cerevisiae [13]) | MIC (Saccharomyces cerevisiae [14]) | MIC (Saccharomyces cerevisiae [15]) | MIC (Saccharomyces cerevisiae [16]) | MIC (Saccharomyces cerevisiae [17]) | MIC (Candida tropicalis [18]) | MIC (Nakaseomyces glabratus) | MIC (Candida albicans [19]) | further results
CC[C@@H]([C@H](C)O)n1ncn(-c2ccc(N3CCN(c4ccc(OC[C@@H]5CO[C@@](Cn6cncn6)(c6ccc(F)cc6F)C5)cc4)CC3)cc2)c1=O [POSACONAZOLE] | 0.125 µg/mL | 2 µg/mL | 0.125 µg/mL | 0.125 µg/mL | 1 µg/mL | 0.063 µg/mL | 0.0313 µg/mL | 0.125 µg/mL | 2 µg/mL | 0.125 µg/mL | 1 µg/mL | 8 µg/mL | 0.125 µg/mL | 1 µg/mL | 1 µg/mL | 0.5 µg/mL | 0.25 µg/mL |  |  |  | 
C[C@@H](c1nc(-c2ccc(C#N)cc2)cs1)[C@](O)(Cn1cncn1)c1ccc(F)cc1F [RAVUCONAZOLE] | 0.008 µg/mL | 0.008 µg/mL | 0.063 µg/mL | 2 µg/mL | 0.008 µg/mL | 0.016 µg/mL | 0.008 µg/mL | 0.008 µg/mL | 0.016 µg/mL | 0.008 µg/mL | 0.008 µg/mL | 16 µg/mL | 0.016 µg/mL | 0.008 µg/mL | 0.008 µg/mL | 0.008 µg/mL | 0.008 µg/mL | 8 µg/mL (≈ 18.3 µM) | ≤ 0.125 µg/mL | ≤ 0.125 µg/mL | MIC ([Candida] auris [20]): 1 µg/mL (≈ 2.29 µM); MIC (Cryptococcus neoformans): ≤ 0.125 µg/mL; MIC (Candida albicans [21]): ≤ 0.125 µg/mL; MIC (Pichia kudriavzevii): 1 µg/mL (≈ 2.29 µM); MIC (Candida albicans [22]): 16 µg/mL (≈ 36.6 µM); MIC (Candida albicans [23]): 16 µg/mL (≈ 36.6 µM); MIC ([Candida] auris [24]): 1 µg/mL (≈ 2.29 µM); MIC ([Candida] auris [25]): 1 µg/mL (≈ 2.29 µM); MIC (Candida parapsilosis): ≤ 0.125 µg/mL
C[C@@H](OCc1ccn(Cc2ccc(Br)cc2)n1)[C@](O)(Cn1cncn1)c1ccc(F)cc1F |  |  |  |  |  |  |  |  |  |  |  |  |  |  |  |  |  | 0.25 µg/mL (≈ 0.482 µM) | ≤ 0.125 µg/mL | ≤ 0.125 µg/mL | Ratio (Candida tropicalis [26]): 256; MIC ([Candida] auris [20]): 16 µg/mL (≈ 30.9 µM); MIC (Cryptococcus neoformans): 0.25 µg/mL (≈ 0.482 µM); MIC (Candida albicans [21]): ≤ 0.125 µg/mL; MIC (Pichia kudriavzevii): 2 µg/mL (≈ 3.86 µM); MIC (Candida albicans [22]): 16 µg/mL (≈ 30.9 µM); MIC (Candida albicans [23]): 32 µg/mL (≈ 61.7 µM); Ratio (Candida tropicalis [27]): 32; MIC ([Candida] auris [24]): 8 µg/mL (≈ 15.4 µM); MIC ([Candida] auris [25]): 8 µg/mL (≈ 15.4 µM); MIC (Candida parapsilosis): 0.25 µg/mL (≈ 0.482 µM)
CC(=O)N1CCN(c2ccc(OCC3COC(Cn4ccnc4)(c4ccc(Cl)cc4Cl)O3)cc2)CC1 (configuration not stated) [KETOCONAZOLE] | 0.5 µg/mL | 1 µg/mL | 0.25 µg/mL | 8 µg/mL | 2 µg/mL | 0.5 µg/mL | 8 µg/mL | 0.5 µg/mL | 2 µg/mL | 1 µg/mL | 1 µg/mL | 64 µg/mL | 0.25 µg/mL | 1 µg/mL | 1 µg/mL | 0.25 µg/mL | 0.5 µg/mL |  |  |  | 
